Where a name gives a salt, the structure may show the parent alone. Read-outs that look alike come from different tables or passages of the source.
How the values were obtained:
[1] = system: HeLa, human cervical tumour cells; assay: Proliferation assay, HeLa (crystal violet); type: cell-based; conditions: 4 days, read-out: Inhibition of HeLa cell proliferation IC50
Procedure: Cultivated tumour cells (HeLa, human cervical tumour cells, ATCC CCL-2; NCI-H460, human non-small cell lung carcinoma cells, ATCC HTB-177; A2780, human ovarian carcinoma cells, ECACC #93112519; DU 145, hormone-independent human prostate carcinoma cells, ATCC HTB-81; HeLa-MaTu-ADR, multidrug-resistant human cervical carcinoma cells, EPO-GmbH Berlin; Caco-2, human colorectal carcinoma cells, ATCC HTB-37; B16F10, mouse melanoma cells, ATCC CRL-6475) were plated at a density of 5,000 cells/well (DU145, HeLa-MaTu-ADR), 3,000 cells/well (NCI-H460, HeLa), 2,500 cells/well (A2780), 1,500 cells/well (Caco-2), or 1,000 cells/well (B16F10) in a 96-well multititer plate in 200 μL of their respective growth medium supplemented 10% fetal calf serum. After 24 hours, the cells of one plate (zero-point plate) were stained with crystal violet (see below), while the medium of the other plates was replaced by fresh culture medium (200 μl), to which the test substances were added in various concentrations (0 μM, as well as in the range of 0.001-10 μM; the final concentration of the solvent dimethyl sulfoxide was 0.5%). The cells were incubated for 4 days in the presence of test substances. Cell proliferation was determined by staining the cells with crystal violet: the cells were fixed by adding 20 μl/measuring point of an 11% glutaric aldehyde solution for 15 minutes at room temperature. After three washing cycles of the fixed cells with water, the plates were dried at room temperature. The cells were stained by adding 100 μl/measuring point of a 0.1% crystal violet solution (pH 3.0). After three washing cycles of the stained cells with water, the plates were dried at room temperature. The dye was dissolved by adding 100 μl/measuring point of a 10% acetic acid solution. The extinction was determined by photometry at a wavelength of 595 nm. The change of cell number, in percent, was calculated by normalization of the measured values to the extinction values of the zero-point plate (=0%) and the extinction of the untreated (0 μm) cells (=100%). The IC50 values (inhibitory concentration at 50% of maximal effect) were determined by means of a 4 parameter fit. Non-adherent MOLM-13 human acute myeloid leukemia cells (DSMZ ACC 554) were seeded at a density of 5,000 cells/well in a 96-well multititer plate in 100 μL of growth medium supplemented 10% fetal calf serum. After 24 hours, cell viability of one plate (zero-point plate) was determined with the Cell Titre-Glo Luminescent Cell Viability Assay (Promega), while 50 μL of test compound containing medium was added to the wells of the other plates (final concentrations in the range of 0.001-10 μM and DMSO controls; the final concentration of the solvent dimethyl sulfoxide was 0.5%). Cell viability was assessed after 72-hour exposure with the Cell Titre-Glo Luminescent Cell Viability Assay (Promega).

CDK2/CycE = molecular target: T1, CDK2/CycE (Homo sapiens, UniProt P24941); assay: CDK2/CycE kinase assay (TR-FRET, 10 μM ATP); type: biochemical; conditions: Method 2 (2a)
T1 construct: GST; purchased ProQinase GmbH (Freiburg, Germany); host or cells: insect cells (Sf9)
Text: 2a. CDK2/CycE Kinase Assay:
CDK2/CycE-inhibitory activity of compounds of the present invention was quantified employing the CDK2/CycE TR-FRET assay as described in the following paragraphs:
Recombinant fusion proteins of GST and human CDK2 and of GST and human CycE, expressed in insect cells (Sf9) and purified by Glutathion-Sepharose affinity chromatography, were purchased from ProQinase GmbH (Freiburg, Germany). As substrate for the kinase reaction biotinylated peptide biotin-Ttds-[…] (C-terminus in amid form) was used which can be purchased e.g. form the company JERINI Peptide Technologies (Berlin, Germany).
For the assay 50 nl of a 100 fold concentrated solution of the test compound in DMSO was pipetted into a black low volume 384 well microtiter plate (Greiner Bio-One, Frickenhausen, Germany), 2 μl of a solution of CDK2/CycE in aqueous assay buffer [50 mM Tris/HCl pH 8.0, 10 mM MgCl2, 1.0 mM dithiothreitol, 0.1 mM sodium ortho-vanadate, 0.01% (v/v) Nonidet-P40 (Sigma)] were added and the mixture was incubated for 15 min at 22° C. to allow pre-binding of the test compounds to the enzyme before the start of the kinase reaction. Then the kinase reaction was started by the addition of 3 μl of a solution of adenosine-tri-phosphate (ATP, 16.7 μM=>final conc. in the 5 μl assay volume is 10 μM) and substrate (1.25 μM=>final conc. in the 5 μl assay volume is 0.75 μM) in assay buffer and the resulting mixture was incubated for a reaction time of 25 min at 22° C. The concentration of CDK2/CycE was adjusted depending of the activity of the enzyme lot and was chosen appropriate to have the assay in the linear range, typical concentrations were in the range of 130 ng/mL The reaction was stopped by the addition of 5 μl of a solution of TR-FRET detection reagents (0.2 μM streptavidine-XL665 [Cisbio Bioassays, Codolet, France] and 1 nM anti-RB(pSer807/pSer811)-antibody from BD Pharmingen [#558389] and 1.2 nM LANCE EU-W1024 labeled anti-mouse IgG antibody [Perkin-Elmer, product no. AD0077]) in an aqueous EDTA-solution (100 mM EDTA, 0.2% (w/v) bovine serum albumin in 100 mM HEPES/NaOH pH 7.0).
The resulting mixture was incubated 1 h at 22° C. to allow the formation of complex between the phosphorylated biotinylated peptide and the detection reagents. Subsequently the amount of phosphorylated substrate was evaluated by measurement of the resonance energy transfer from the Eu-chelate to the streptavidine-XL. Therefore, the fluorescence emissions at 620 nm and 665 nm after excitation at 350 nm was measured in a TR-FRET reader, e.g. a Rubystar (BMG Labtechnologies, Offenburg, Germany) or a Viewlux (Perkin-Elmer). The ratio of the emissions at 665 nm and at 622 nm was taken as the measure for the amount of phosphorylated substrate.

Q: For `CCS(=N)(=O)Cc1ccnc(Nc2cc(-c3ccc(F)cc3OC)c(F)cn2)c1` (racemic) [Example 30, (rac)-N-{4-[(S-Ethylsulfonimidoyl)-methyl]pyridin-2-yl}-5-fluoro-4-(4-fluoro-2-methoxyphenyl)pyridin-2-amine], which IC50 ([1]; Homo sapiens, 96 h) is on record?
A: Its IC50 is 100 nM.

Q: And the IC50 (CDK2/CycE)?
A: The IC50 was 210 nM.

Q: With `COc1cc(F)ccc1-c1cc(Nc2cc(CS(C)(=N)=O)cc(C(F)F)n2)ncc1F` (racemic) [Example 31, (rac)-N-{6-(Difluoromethyl)-4-[(S-methylsulfonimidoyl)methyl]pyridin-2-yl}-5-fluoro-4-(4-fluoro-2-methoxyphenyl)pyridin-2-amine] as the compound, how does the IC50 ([1]; Homo sapiens, 96 h) read?
A: Its IC50 is 8 nM.

Q: What about the IC50 (CDK2/CycE) of the same compound?
A: The IC50 was 10 nM.

Q: Which results are given for `COc1cc(F)ccc1-c1cc(Nc2cc(CS(C)(=O)=NC#N)ccn2)ncc1F` (single isomer, unassigned) [Example 10, {[(2-{[5-Fluoro-4-(4-fluoro-2-methoxyphenyl)pyridin-2-yl]amino}pyridin-4-yl)methyl](methyl)oxido-λ^6-sulfanylidene}cyanamide]?
A: IC50 ([1]; Homo sapiens, 96 h): 31 nM; IC50 (CDK2/CycE): 72 nM

Q: Which IC50 [1] does the source give for `COc1cc(F)ccc1-c1cc(Nc2cc(CS(C)(=N)=O)ccn2)ncc1F` (single isomer, unassigned; (+)) [Example 2, (+)-5-Fluoro-4-(4-fluoro-2-methoxyphenyl)-N-{4-[(S-methylsulfonimidoyl)methyl]pyridin-2-yl}pyridin-2-amine] here?
A: The IC50 was 110 nM.

Q: What about the IC50 (CDK2/CycE) of the same compound?
A: Its IC50 is 360 nM.

Q: What does the source list for `COc1cc(F)ccc1-c1cc(Nc2cc(CS(C)(=N)=O)cc(C(F)(F)F)n2)ncc1F` (single isomer, unassigned; (+)) [Example 22, (+)-5-Fluoro-4-(4-fluoro-2-methoxyphenyl)-N-{4-[(S-methylsulfonimidoyl)methyl]-6-(trifluoromethyl)pyridin-2-yl}pyridin-2-amine]?
A: IC50 ([1]; Homo sapiens, 96 h): 30 nM; IC50 (CDK2/CycE): 18 nM

Q: `COc1cc(F)ccc1-c1cc(Nc2cc(CS(C)(=O)=NC(=O)C(F)(F)F)cc(C(F)(F)F)n2)ncc1F` (single isomer, unassigned; (+)) [Example 24, (+)-2,2,2-Trifluoro-N-[{[2-{[5-fluoro-4-(4-fluoro-2-methoxyphenyl)pyridin-2-yl]amino}-6-(trifluoromethyl)-pyridin-4-yl]methyl}(methyl)oxido-λ^6-sulfanylidene]acetamide] was tested. Which IC50 ([1]; Homo sapiens, 96 h) did it give?
A: Its IC50 is 32 nM.

Q: What about the IC50 (CDK2/CycE) of the same compound?
A: Its IC50 is 250 nM.

Q: How did the IC50 ([1]; Homo sapiens, 96 h) turn out when `CCOc1cc(F)ccc1-c1cc(Nc2cc(CS(C)(=N)=O)cc(F)n2)ncc1F` (single isomer, unassigned; (+)) [Example 28, (+)-4-(2-Ethoxy-4-fluorophenyl)-5-fluoro-N-{6-fluoro-4-[(S-methylsulfonimidoyl)methyl]pyridin-2-yl}pyridin-2-amine] was run?
A: The IC50 was 99 nM.

Q: What about the IC50 (CDK2/CycE) of the same compound?
A: The IC50 was 120 nM.

Q: Which results are given for `COc1cc(F)ccc1-c1cc(Nc2cc(CS(C)(=N)=O)cc(C)n2)ncc1F` (single isomer, unassigned; (+)) [Example 32, (+)-5-Fluoro-4-(4-fluoro-2-methoxyphenyl)-N-{6-methyl-4-[(S-methylsulfonimidoyl)methyl]pyridin-2-yl}pyridin-2-amine]?
A: IC50 ([1]; Homo sapiens, 96 h): 31 nM; IC50 (CDK2/CycE): 120 nM

Q: For `COc1cc(F)ccc1-c1cc(Nc2cc(CS(C)(=N)=O)ccn2)ncc1F` (single isomer, unassigned; (-)) [Example 3, (−)-5-Fluoro-4-(4-fluoro-2-methoxyphenyl)-N-{4-[(S-methylsulfonimidoyl)methyl]pyridin-2-yl}pyridin-2-amine], which IC50 [1] is on record?
A: The IC50 was 100 nM.

Q: What about the IC50 (CDK2/CycE) of the same compound?
A: The IC50 was 240 nM.

Q: For `COc1cc(F)ccc1-c1cc(Nc2cc(CS(C)(=N)=O)cc(F)n2)ncc1F` (single isomer, unassigned; (-)) [Example 20, (−)-5-Fluoro-4-(4-fluoro-2-methoxyphenyl)-N-{6-fluoro-4-[(S-methylsulfonimidoyl)methyl]pyridin-2-yl}pyridin-2-amine], which IC50 ([1]; Homo sapiens, 96 h) is on record?
A: Its IC50 is 30 nM.

Q: And the IC50 (CDK2/CycE)?
A: The IC50 was 72 nM.

Q: Which IC50 [1] does the source give for `COc1cc(F)ccc1-c1cc(Nc2cc(CS(C)(=N)=O)cc(C(F)(F)F)n2)ncc1F` (single isomer, unassigned; (-)) [Example 23, (−)-5-Fluoro-4-(4-fluoro-2-methoxyphenyl)-N-{4-[(S-methylsulfonimidoyl)methyl]-6-(trifluoromethyl)pyridin-2-yl}pyridin-2-amine] here?
A: The IC50 was 30 nM.

Q: What about the IC50 (CDK2/CycE) of the same compound?
A: Its IC50 is 22 nM.

Q: With `COc1cc(F)ccc1-c1cc(Nc2cc(CS(C)(=O)=NC(=O)C(F)(F)F)cc(C(F)(F)F)n2)ncc1F` (single isomer, unassigned; (-)) [Example 25, (−)-2,2,2-Trifluoro-N-[{[2-{[5-fluoro-4-(4-fluoro-2-methoxyphenyl)pyridin-2-yl]amino}-6-(trifluoromethyl)-pyridin-4-yl]methyl}(methyl)oxido-λ^6-sulfanylidene]acetamide] as the compound, how does the IC50 [1] read?
A: The IC50 was 35 nM.

Q: What about the IC50 (CDK2/CycE) of the same compound?
A: Its IC50 is 110 nM.

Q: How did the IC50 [1] turn out when `CCOc1cc(F)ccc1-c1cc(Nc2cc(CS(C)(=N)=O)cc(F)n2)ncc1F` (single isomer, unassigned; (-)) [Example 29, (−)-4-(2-Ethoxy-4-fluorophenyl)-5-fluoro-N-{6-fluoro-4-[(S-methylsulfonimidoyl)methyl]pyridin-2-yl}pyridin-2-amine] was run?
A: The IC50 was 110 nM.

Q: What about the IC50 (CDK2/CycE) of the same compound?
A: Its IC50 is 98 nM.

Q: Which results are given for `COc1cc(F)ccc1-c1cc(Nc2cc(CS(C)(=N)=O)cc(C)n2)ncc1F` (single isomer, unassigned; (-)) [Example 33, (−)-5-Fluoro-4-(4-fluoro-2-methoxyphenyl)-N-{6-methyl-4-[(S-methylsulfonimidoyl)methyl]pyridin-2-yl}pyridin-2-amine]?
A: IC50 [1]: 19 nM; IC50 (CDK2/CycE): 67 nM

Q: Which IC50 [1] does the source give for `COc1cc(F)ccc1-c1cc(Nc2cc(CS(C)(=N)=O)ccn2)ncc1F` (single isomer, unassigned; enantiomer 1) [Example 16, 5-Fluoro-4-(4-fluoro-2-methoxyphenyl)-N-{4-[(S-methylsulfonimidoyl)methyl]pyridin-2-yl}pyridin-2-amine hydrochloride; enantiomer 1] here?
A: Its IC50 is 63 nM.

Q: What about the IC50 (CDK2/CycE) of the same compound?
A: The IC50 was 430 nM.

Source: patent US9650340B2, “5-fluoro-N-(pyridin-2-yl)pyridin-2-amine derivatives containing a sulfoximine group” (BAYER PHARMA AKTIENGESELLSCHAFT, priority 2012, dated 2017)
